# Measurements from patent US10857185B2, “Compositions and methods for reprogramming non-neuronal cells into neuron-like cells” (Beihao Stem Cell and Regenerative Medicine Research …, priority 2015, dated 2020).
# Entries after “also recorded” stand apart in the source; their conditions may differ.
# Key:
# mouse fibroblasts = experiment: Transgene-free chemical induction of mouse fibroblasts into neuron-like cells (immunostaining counts); format: cell-based
# Description: Secondary screening was performed to identify additional small molecules that facilitate neuronal reprogramming and maturation (shown schematically in FIG. 2A). In this screening, the effect of the additional small molecules was evaluated by observing neurite outgrowth. Desirable additional small molecules could induce the neurons with an improved neurite outgrowth as signs of enhanced reprogramming and maturation, ideally with highly complex morphologies. Improved neurite morphologies were evaluated in terms of enhanced neurite branches and neurite length. Further, characterization (e.g. TUJ1 immunostaining) was performed to confirm the observation. Fibroblasts were seeded into 12-well plates and each additional small molecule was added well by well into the culture medium containing the basic small-molecule cocktail (SM-cocktail+1 Screening), while SM-cocktail+DMSO was used as a negative control. […] TUJ1-positive cells with circular cell bodies and neurite outgrowth that is at least three-fold longer than the cell body were quantified. […] Cells were washed with PBS twice and then fixed with 4% paraformaldehyde for 20 min at room temperature. Afterward, the cells were washed with PBS twice and then blocked and permeabilized with 0.25% PBST (PBS plus 0.25% Triton X-100) and 3% donkey serum (DS) for 1 hour at 37° C. A PAP pen was used to outline the fields for staining. Diluted primary antibodies were added to the outlined fields, and the samples were incubated at 4° C. overnight. Next, the cells were washed three times with PBS and incubated in PBS plus 3% DS with diluted secondary antibodies for 1 hour at room temperature. The nuclei of the cells were stained with DAPI (Roche Molecular Biochemicals) if needed. […] The following secondary antibodies were used in this study: FITC and TRITC-conjugated secondary antibodies (Jackson ImmunoResearch) and Alexa Fluor 647-conjugated secondary antibodies (Life Technologies).
# CiNs = experiment: Whole-cell patch-clamp recordings of CiNs; format: cell-based, mouse; details: CiNs after re-plating; data not shown
# Description: Primary cultures of neurons were prepared from postnatal day 1 wild-type C57 mice. Mice were decapitated, and their brains were removed in pre-cooled physiological saline. The hippocampus was dissected in pre-cooled HBSS (9.5 g/L Hanks' balanced salts, 4.2 mM NaHCO3, 10 mM HEPES, 12 mM MgSO4, 7 g/L glucose, 0.3 g/L bull serum albumin, and 0.5% penicillin/streptomycin, with the pH adjusted to 7.4 with NaOH). Tissues were digested with 5 ml 0.2% trypsin (Gibco, dissolved in digestion solution) for 2-3 min, and the digestion reaction was stopped with 1 mg/ml trypsin inhibitor (Sigma, dissolved in HBSS). The digestion solution contained (in mM) 4.2 NaHCO3, 25 HEPES, 137 NaCl, 5 KCl, and 7 Na2HPO4, and the pH was adjusted to 7.4 with NaOH. […]
# For whole-cell patch-clamp recordings, the ACSF (artificial cerebrospinal fluid) extracellular solution contained (in mM) 141 NaCl, 2.5 KCl, 1.3 MgCl2, 2.4 CaCl2, 1.25 NaH2PO4 10 glucose and 10 HEPES (pH adjusted to 7.4 with NaOH), and the internal pipette solution contained (in mM) 140 potassium gluconate, 1 CaCl2, 10 EGTA, 2 MgCl2, 10 HEPES, and 5 Na2ATP (pH adjusted to 7.3 with KOH). […] Tetrodotoxin (TTX; 10 μM) dissolved in extracellular solution was applied with an ALA-VM4 valve manifold (Scientific Instruments), and washout from the iNs was assessed to determine whether the inward fast inactivating current was a sodium current. […]
# fibroblasts = experiment: Gene expression (RT-qPCR) after removing each small molecule from the cocktail; format: cell-based, mouse
# Description: Total RNA was extracted using the Qiagen RNeasy Plus mini kit and was reverse transcribed into cDNA with TransScript One-step gDNA Removal and cDNA Synthesis SuperMix (TransGen Biotech). Real-time PCR was performed using a 7300 Real-Time PCR system (Applied Biosystems) with Power SYBR Green PCR Master Mix (2×).
# Gene expression was analyzed using the ΔΔCt method. All the results were normalized to β-actin expression, and the values of uninduced fibroblasts were set to 1. Two replicates were used to determine the error bars.
# Next, the roles of the small molecules in regulating these endogenous cell-fate-determining factors were determined.
# [1] = I-BET151 added to FICS cocktail (FICS+1 screening)
compound,measurement,setting,value
"NC(=O)c1ccc(-c2nc(-c3ccc4c(c3)OCO4)c(-c3ccccn3)[nH]2)cc1 [SB431542, 4-[4-(1,3-benzodioxol-5-yl)-5-(2-pyridinyl)-1H-imidazol-2-yl]benzamide]",survival and neurite outgrowth of the induced neurons,mouse fibroblasts; in FICSB cocktail,enhanced
same,need of the chemical for generating neurons,mouse fibroblasts; withdrawing individual chemical from FICSB cocktail,dispensable for generating neurons
"C[C@@H](N)[C@H]1CC[C@H](C(=O)Nc2ccncc2)CC1.Cl.Cl [Y2632, (+)-(R)-trans-4-(1-aminoethyl)-N-(4-pyridyl)cyclohexanecarboxamide dihydrochloride]",survival rate and reprogramming,mouse fibroblasts; treatment from Day 0 to about day 4 together with I-BET151-containing cocktail,enhanced the survival rate and reprogramming
"N#Cc1cc2c(cc1[N+](=O)[O-])=NC(=O)C(=O)N=2 [CNQX, 6-cyano-7-nitroquinoxaline-2,3-dione]",effect of receptor antagonists on EPSCs of CiNs,CiNs,blocked
"COc1cc2c(cc1-c1c(C)noc1C)ncc1[nH]c(=O)n([C@H](C)c3ccccn3)c12 [I-BET151, 7-(3,5-dimethylisoxazol-4-yl)-8-methoxy-1-((R)-1-(pyridin-2-yl)ethyl)-1H-imidazo[4,5-c]quinolin-2(3H)-one]",TUJ1-positive cells yield,mouse fibroblasts; [1],90%
same,reprogramming rate and neurite outgrowth of the induced neurons,mouse fibroblasts; [1],dramatically enhanced
same,toxicity to cells being induced,mouse fibroblasts; enhancing reprogramming with I-BET151,some toxicity
same,role in suppression of the endogenous fibroblast-fate-determining program,fibroblasts,core small molecule to suppress the endogenous fibroblast-fate-determining program
"NC(CCCP(=O)(O)O)C(=O)O (stereo not shown) [AP5, 2-amino-5-phosphonovaleric acid]",effect of receptor antagonists on EPSCs of CiNs,CiNs,blocked
"O=C(NC1CC1)c1cc(-c2cccs2)on1 [ISX9, N-cyclopropyl-5-(2-thienyl)-3-isoxazolecarboxamide]",role in activation of master neural / neuron-specific genes,fibroblasts; 48 h,necessary for activation of multiple neuron-specific genes; also recorded: essential to induce the master neural genes
